Legend:
Assay type in all cases: cell-based
[1] = system: WT cell line SK-BR-3; assay: Cell Proliferation Assay (CellTiter-Glo), SK-BR-3; details: Homo sapiens, 72 h; SK-BR-3, 3 days treatment
Method: The SK-BR-3 (ATCC, HTB-30) cell line was obtained from the American Type Culture Collection. Cells were maintained in McCoy' 5A medium (Gibco, REF #16600108) supplemented with 10% Fetal Bovine Serum. Cultures were maintained in a humidified incubator at 37° C. under 5% CO2/95% air.
(§1) Cell Proliferation Assay. PI3Kα H1047R mutated cell line T-47D cells and WT cell line SK-BR-3 were seeded at a density of 3×10^3 cells per well in 96 well plate (Xinyou Biotechnology, 062096) in 95 μL of culture medium, overnight. Compounds dissolved in 10 mM stock solutions in DMSO were serially diluted 1:3 in DMSO to generate a 9-point dilution series and plated using an INTEGRA ASSIST Plus pipetting robot. A 20× intermediate compound dilution plate in RPMI1640 medium (200 M starting compound concentration in 2% DMSO) was then prepared. Five μL of intermediate serially diluted compounds were added to the cell plate to final concentrations ranging from […] to 1 nM in 0.1% DMSO. 0.1% DMSO alone was used to establish the maximum signal and medium without cells was for minimum signal. After 3 days treatment, equilibrated the plate and its contents at room temperature for approximately 30 minutes. Added 30 μL CellTiter-Glo® Reagent (Promega, REF #G7571) to each well. Then mixed contents for 5 min on plate shaker to induce cell lysis. Incubated at room temperature for 10 minutes to stabilize luminescent signal. The plates were read on PHERAstar FSX Microplate reader using standard luminescence settings.
(§2) Relative IC50 values were determined using luminescence units by calculating percent inhibition with respect to the in-plate “MIN” (medium only) and “MAX” (0.1% DMSO) controls. The data were analyzed using a 4-parameter nonlinear logistic equation (four-parameter logistic concentration-response curve): Y=bottom+[(top−bottom)/1+(X/IC50) slope] • where Y=% inhibition, X=concentration of inhibitor, bottom=minimum value of y attained by curve-fit, top=maximum value of y attained by curve-fit and slope=steepness of curve at the IC50.

[2] = system: PI3Kα H1047R mutated cell line T-47D cells; assay: Cell Proliferation Assay (CellTiter-Glo), T-47D; details: for IC50: Homo sapiens, T47D, 72 h, T-47D, 3 days treatment; for Selectivity: SK-BR-3/T-47D (cell proliferation): cell proliferation IC50 ratio
Method: Cell Culture Maintenance. The T-47D (ATCC, HTB-133) cell line was obtained from the American Type Culture Collection. Cells were maintained in RPMI1640 medium (Gibco, REF #22400105) supplemented with 10% Fetal Bovine Serum (Gibco, REF #10091148). Cultures were maintained in a humidified incubator at 37° C. under 5% CO2/95% air.
as §1, §2

[3] = system: WT cell line SK-BR-3; assay: Phospho-AKT (Ser473) Inhibition Assay (HTRF), SK-BR-3; details: Homo sapiens; SK-BR-3, 1 hour treatment; read-out: p-AKT Inhibition assay (S473) IC50 SK-BR-3
In short: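 SK-BR-3 (PI3Kα WT) cells seeded overnight in MEM with insulin, then treated 1 h with 11-point 1:3 dilutions (10 μM to 0.1 nM, 0.1% DMSO). Lysates read for phospho-AKT Ser473 by HTRF after 4 h antibody incubation at room temperature. IC50 from 4-parameter fit, % inhibition normalized to DMSO (max) and 10 μM GDC0077 (min).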

With `Cc1cc(C(C)Nc2ccccc2C(=O)O)c2cc(-c3ccccc3C#N)n(C)c(=O)c2c1` (stereo not shown) [Example 32, 2-((1-(3-(2-cyanophenyl)-2,7-dimethyl-1-oxo-1,2-dihydroisoquinolin-5-yl)ethyl)amino)benzoic acid] the IC50 [1] was greater than 10000 nM, the IC50 [2] was 2460 nM and the “Selectivity: SK-BR-3/T-47D (cell proliferation)” value (from here on “Selectivity: SK-BR-3/T-47D”) [2] was greater than 4.07. The IC50 [3] was greater than 10000 nM.

For `Cc1cc(C(C)Nc2ccccc2C(=O)O)c2cc(-c3nc4ccccc4s3)n(C)c(=O)c2c1` (stereo not shown) [Example 17, 2-((1-(3-(benzo[d]thiazol-2-yl)-2,7-dimethyl-1-oxo-1,2-dihydroisoquinolin-5-yl)ethyl)amino)benzoic acid], the IC50 [1] was greater than 10000 nM, the IC50 [2] was 746 nM and the “Selectivity: SK-BR-3/T-47D” value [2] was greater than 13. For the same molecule, the IC50 [3] was 795 nM.

With `Cc1cc(C(C)Nc2ccccc2C(=O)O)c2cc(-c3ccc(F)cc3)n(C)c(=O)c2c1` (stereo not shown) [Example 8, 2-((1-(3-(4-fluorophenyl)-2,7-dimethyl-1-oxo-1,2-dihydroisoquinolin-5-yl)ethyl)amino)benzoic acid] the IC50 [1] was greater than 10000 nM, the IC50 [2] was 158 nM and the “Selectivity: SK-BR-3/T-47D” value [2] was greater than 63. It also gave an IC50 [3] of 2500 nM.

With `Cc1cc(C(C)Nc2ccccc2C(=O)O)c2cc(-c3cccc(F)c3F)n(C)c(=O)c2c1` (stereo not shown) [Example 12, 2-((1-(3-(2,3-difluorophenyl)-2,7-dimethyl-1-oxo-1,2-dihydroisoquinolin-5-yl)ethyl)amino)benzoic acid] the IC50 [1] was greater than 10000 nM, the IC50 [2] was 237 nM and the “Selectivity: SK-BR-3/T-47D” value [2] was greater than 42. For the same molecule, the IC50 [3] was 2160 nM.

In the case of `Cc1cc([C@@H](C)Nc2ccccc2C(=O)O)c2cc(-c3ccc(F)cc3)n(C)c(=O)c2c1` [Example 34, (R)-2-((1-(3-(4-fluorophenyl)-2,7-dimethyl-1-oxo-1,2-dihydroisoquinolin-5-yl)ethyl)amino)benzoic acid], the IC50 [1] is reported as greater than 10000 nM, the IC50 [2] is reported as 175 nM and the “Selectivity: SK-BR-3/T-47D” value [2] is reported as greater than 57. For the same molecule, the IC50 [3] was greater than 10000 nM.

In the case of `Cc1cc(C(C)Nc2ccccc2C(=O)O)c2cc(C3=CCN(c4ccccc4)C3)n(C)c(=O)c2c1` (stereo not shown) [Example 76, 2-((1-(2,7-dimethyl-1-oxo-3-(1-phenyl-2,5-dihydro-1H-pyrrol-3-yl)-1,2-dihydroisoquinolin-5-yl)ethyl)amino)benzoic acid], the IC50 [1] is reported as greater than 10000 nM, the IC50 [2] is reported as 674 nM and the “Selectivity: SK-BR-3/T-47D” value [2] is reported as greater than 14.8. It also gave an IC50 [3] of 5340 nM.

`COc1ccc(-c2cc3c(C(C)Nc4ccccc4C(=O)O)cc(C)cc3c(=O)n2C)cc1` (stereo not shown) [Example 14, 2-((1-(3-(4-methoxyphenyl)-2,7-dimethyl-1-oxo-1,2-dihydroisoquinolin-5-yl)ethyl)amino)benzoic acid] was tested, and the IC50 [1] was greater than 10000 nM, the IC50 [2] was 232 nM and the “Selectivity: SK-BR-3/T-47D” value [2] was greater than 43. It also gave an IC50 [3] of 2060 nM.

With `CC(Nc1ccccc1C(=O)O)c1cccc2c(=O)n(C)c(C#Cc3ccccc3)cc12` (stereo not shown) [Example 21, 2-((1-(2-methyl-1-oxo-3-(phenylethynyl)-1,2-dihydroisoquinolin-5-yl)ethyl)amino)benzoic acid] the IC50 [1] was greater than 10000 nM, the IC50 [2] was 2540 nM and the “Selectivity: SK-BR-3/T-47D” value [2] was greater than 3.93. The IC50 [3] was 5880 nM.

For `Cc1cc(C(C)Nc2ccccc2C(=O)O)c2cc(-c3ccc(C(C)(C)O)nc3)n(C)c(=O)c2c1` (stereo not shown) [Example 55, 2-((1-(3-(6-(2-hydroxypropan-2-yl)pyridin-3-yl)-2,7-dimethyl-1-oxo-1,2-dihydroisoquinolin-5-yl)ethyl)amino)benzoic acid], the IC50 [1] was greater than 10000 nM, the IC50 [2] was 296 nM and the “Selectivity: SK-BR-3/T-47D” value [2] was greater than 34. It also gave an IC50 [3] greater than 10000 nM.

With `Cc1cc(C(C)Nc2ccccc2C(=O)O)c2cc(-c3cnn(-c4ccc(C(N)=O)cn4)c3)n(C)c(=O)c2c1` (stereo not shown) [Example 16, 2-((1-(3-(1-(5-carbamoylpyridin-2-yl)-1H-pyrazol-4-yl)-2,7-dimethyl-1-oxo-1,2-dihydroisoquinolin-5-yl)ethyl)amino)benzoic acid] the IC50 [1] was greater than 10000 nM, the IC50 [2] was 591 nM and the “Selectivity: SK-BR-3/T-47D” value [2] was greater than 17. It also gave an IC50 [3] greater than 10000 nM.

With `Cc1cc(C(C)Nc2ccccc2C(=O)O)c2cc(-c3ccc(F)c(F)c3)n(C)c(=O)c2c1` (stereo not shown) [Example 9, 2-((1-(3-(3,4-difluorophenyl)-2,7-dimethyl-1-oxo-1,2-dihydroisoquinolin-5-yl)ethyl)amino)benzoic acid] the IC50 [1] was greater than 10000 nM, the IC50 [2] was 143 nM and the “Selectivity: SK-BR-3/T-47D” value [2] was greater than 70. For the same molecule, the IC50 [3] was 3640 nM.

For `Cc1cc(C(C)Nc2ccccc2C(=O)O)c2cc(-c3ccc(N4CCC(C)(O)CC4)nc3)n(C)c(=O)c2c1` (stereo not shown) [Example 72, 2-((1-(3-(6-(4-hydroxy-4-methylpiperidin-1-yl)pyridin-3-yl)-2,7-dimethyl-1-oxo-1,2-dihydroisoquinolin-5-yl)ethyl)amino)benzoic acid], the IC50 [1] was greater than 10000 nM, the IC50 [2] was 175 nM and the “Selectivity: SK-BR-3/T-47D” value [2] was greater than 57. The IC50 [3] was greater than 10000 nM.

For `Cc1cc(C(C)Nc2ccccc2C(=O)O)c2cc(-c3ccc4nn(C)cc4n3)n(C)c(=O)c2c1` (stereo not shown) [Example 39, 2-((1-(2,7-dimethyl-3-(2-methyl-2H-pyrazolo[4,3-b]pyridin-5-yl)-1-oxo-1,2-dihydroisoquinolin-5-yl)ethyl)amino)benzoic acid], the IC50 [1] was greater than 10000 nM, the IC50 [2] was 496 nM and the “Selectivity: SK-BR-3/T-47D” value [2] was greater than 20. For the same molecule, the IC50 [3] was 6170 nM.

`Cc1cc(C(C)Nc2ccccc2S(C)(=O)=O)c2cc(-c3ccccc3)n(C)c(=O)c2c1` (stereo not shown) [Example 82, 2,7-dimethyl-5-(1-((2-(methylsulfonyl)phenyl)amino)ethyl)-3-phenylisoquinolin-1(2H)-one] gave an IC50 [1] greater than 10000 nM, an IC50 [2] greater than 10000 nM and an IC50 [3] of 2020 nM.

For `Cc1cc(C(C)Nc2ccccc2C(=O)O)c2cc(-c3cccnc3)n(C)c(=O)c2c1` (stereo not shown) [Example 37, 2-((1-(2,7-dimethyl-1-oxo-3-(pyridin-3-yl)-1,2-dihydroisoquinolin-5-yl)ethyl)amino)benzoic acid], the IC50 [1] was greater than 10000 nM, the IC50 [2] was 172 nM and the “Selectivity: SK-BR-3/T-47D” value [2] was greater than 58.3. The IC50 [3] was greater than 10000 nM.

With `COC1(c2ccc(-c3cc4c(C(C)Nc5ccccc5C(=O)O)cc(C)cc4c(=O)n3C)cc2)CCOCC1` (stereo not shown) [Example 74, 2-((1-(3-(4-(4-methoxytetrahydro-2H-pyran-4-yl)phenyl)-2,7-dimethyl-1-oxo-1,2-dihydroisoquinolin-5-yl)ethyl)amino)benzoic acid] the IC50 [1] was greater than 10000 nM, the IC50 [2] was 86.9 nM and the “Selectivity: SK-BR-3/T-47D” value [2] was greater than 115. The IC50 [3] was 4390 nM.

`Cc1cc(C(C)Nc2ccccc2C(=O)O)c2cc(-c3ccc4nn(C)cc4c3)n(C)c(=O)c2c1` (stereo not shown) [Example 19, 2-((1-(2,7-dimethyl-3-(2-methyl-2H-indazol-5-yl)-1-oxo-1,2-dihydroisoquinolin-5-yl)ethyl)amino)benzoic acid] was tested, and the IC50 [1] was greater than 10000 nM, the IC50 [2] was 116 nM and the “Selectivity: SK-BR-3/T-47D” value [2] was greater than 86. It also gave an IC50 [3] of 2290 nM.

With `Cc1cc(C(C)Nc2ccccc2C(=O)O)c2cc(-c3ccc(C4(O)CC4)cc3)n(C)c(=O)c2c1` (stereo not shown) [Example 62, 2-((1-(3-(4-(1-hydroxycyclopropyl)phenyl)-2,7-dimethyl-1-oxo-1,2-dihydroisoquinolin-5-yl)ethyl)amino)benzoic acid] the IC50 [1] was greater than 10000 nM, the IC50 [2] was 118 nM and the “Selectivity: SK-BR-3/T-47D” value [2] was greater than 85. For the same molecule, the IC50 [3] was 2970 nM.

With `CCn1c(-c2ccc(F)cc2)cc2c(C(C)Nc3ccc(Cl)nc3C(=O)O)cc(C)cc2c1=O` (stereo not shown) [Example 81, 6-chloro-3-((1-(2-ethyl-3-(4-fluorophenyl)-7-methyl-1-oxo-1,2-dihydroisoquinolin-5-yl)ethyl)amino)picolinic acid] the IC50 [1] was greater than 10000 nM, the IC50 [2] was 770 nM and the “Selectivity: SK-BR-3/T-47D” value [2] was greater than 13. It also gave an IC50 [3] of 1870 nM.

For `Cc1cc(C(C)Nc2ccccc2C(=O)O)c2cc(-c3ccc4c(c3)CN(C)C4=O)n(C)c(=O)c2c1` (stereo not shown) [Example 70, 2-((1-(2,7-dimethyl-3-(2-methyl-1-oxoisoindolin-5-yl)-1-oxo-1,2-dihydroisoquinolin-5-yl)ethyl)amino)benzoic acid], the IC50 [1] was greater than 10000 nM, the IC50 [2] was 245 nM and the “Selectivity: SK-BR-3/T-47D” value [2] was greater than 41. It also gave an IC50 [3] greater than 10000 nM.

Source: US20260125346A1, “Isoquinolinone Derivatives and 4H-Quinolizinone Derivatives and Pharmaceutical Compositions Thereof for the Treatment of Disease” (BeOne Medicines I GmbH, priority 2023, published 2026)
